Laboratory results taken from paper PMC11873722 (Cancer Discovery, 2024).

Columns and labels:
[1] = target: RAF1(RBD):KRAS^G12C(ON) interaction in MIA PaCa-2 cells (Homo sapiens, UniProt P01116, G12C); test: RAS:RAF ELISA assay in MIA PaCa-2 cells; format: cell-based; settings: 1 µmol/L
KRAS^G12C NSCLC = settings: patients with NSCLC with prior KRAS^G12C(OFF)-only inhibitor treatment; cited from earlier work
[2] = Free drug exposure in LUN055 PDX study; format: in vivo, mouse

Sequence of RAF1(RBD):KRAS^G12C(ON) interaction in MIA PaCa-2 cells (P01116 1-188 isoform P01116-2 G12C): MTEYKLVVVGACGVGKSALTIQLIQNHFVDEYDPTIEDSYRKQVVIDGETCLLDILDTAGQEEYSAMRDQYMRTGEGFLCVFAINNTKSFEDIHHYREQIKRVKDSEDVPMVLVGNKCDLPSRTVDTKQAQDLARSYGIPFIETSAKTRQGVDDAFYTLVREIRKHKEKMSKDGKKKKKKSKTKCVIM

Structure (SMILES): C=CC(=O)N1CCN(c2nc(OC[C@@H]3CCCN3C)nc3c(F)c(-c4nc(N)cc(C)c4C(F)(F)F)c(Cl)cc23)[C@@H](C)C1 [GDC-6036]
- time required to achieve maximal activity [1]: more than 60 minutes

Structure (SMILES): CCn1c(-c2cccnc2[C@H](C)OC)c2c3cc(ccc31)N1CCO[C@@H](C[C@H](NC(=O)[C@H](C(C)C)N(C)C(=O)C3(F)CCN(C(=O)C#CC(C)(C)N(C)C)CC3)C(=O)N3CCC[C@H](N3)C(=O)OCC(C)(C)C2)C1 [RMC-6291]
- objective response rate (KRAS^G12C NSCLC): 50%

Structure (SMILES): C=CC(=O)N1CCN(c2nc(=O)n(-c3c(C)ccnc3C(C)C)c3nc(-c4c(O)cccc4F)c(F)cc23)[C@@H](C)C1 [Sotorasib]
- free AUC0–24 hours ([2]; 100 mg/kg sotorasib): 1,563 hours × ng/mL
- free drug concentration higher compared with BBO-8520 ([2]; 100 mg/kg sotorasib vs 30 mg/kg BBO-8520): 20 fold
